B1: IL-10: rIL-10 (500 U/ml, R&D Systems) (protein, UniProt P22301 19-178, looked up)
Interleukin-10: SPGQGTQSENSCTHFPGNLPNMLRDLRDAFSRVKTFFQMKDQLDNLLLKESLLEDFKGYLGCQALSEMIQFYLEEVMPQAENQDPDIKAHVNSLGENLKTLRLRLRRCHRFLPCENKSKAVEQVKNAFNKLQEKGIYKAMSEFDIFINYIEAYMTMKIRN

Columns and labels:
human monocytes = assay: in vitro stimulation of monocytes: TNF-α, IL-1β and sTREM-1 release; assay type: cell-based; conditions: P5 or control peptide 10 to 100 ng/mL, rIL-10 500 U/mL; for TNF-α and IL-1β production (release of inflammatory cytokines) in monocyte supernatant: LPS 1 μg/mL or LPS + anti-TREM-1 mAb; for release of sTREM-1 from monocytes cultured with LPS: LPS 1 μg/mL
Protocol: For cell activation, primary monocytes were cultured in 24-well flat-bottom tissue culture plates in the presence of LPS (1 μg/mL). In some experiments this stimulus was provided in combination with P5 (10 to 100 ng/mL), control peptide (10 to 100 ng/mL) or rIL-10 (500 U/mL). To activate monocytes through TREM-1, an agonist anti-TREM-1 mAb (10 μg/mL) was added as indicated. Cell-free supernatants were analysed for production of TNF-α, IL-1β. and sTREM-1 by ELISA or immunodot. All experiments were performed in triplicate and data are expressed as means (SEM). • a: Media • b: P5 10 ng/mL • c: Anti-TREM-1 • d: LPS • e: LPS+Anti-TREM-1 • f: LPS+P5 10 ng/mL • g: LPS+P5 50 ng/mL • h: LPS+P5 100 ng/mL • i: LPS+IL10
Ten mL of peripheral blood samples were collected on EDTA-K from 5 healthy volunteer donors originating from laboratory staff. After dilution in RPMI (Life Technologies, Grand Island, N.Y.) v/v, blood was centrifuged for 30 min at room temperature over a Ficoll gradient (Amersham Pharmacia, Uppsala, Sweden) to isolate PBMC. The cells recovered above the gradient were washed and counted. In order to deplete the suspensions of lymphocytes, cells were then plated in 24-well flat-bottom tissue culture plates (Corning, Corning, N.Y.) at a concentration of 5×10^6/mL and allowed to adhere during 2 hours at 37° C. The resulting lymphocyte suspension was discarded and the adhering monocytic cells were maintained in a 5% CO2 incubator at 37° C. in complete medium (RPMI 1640, 0.1 mM sodium pyruvate, […], 50 μg/mL Streptomycin; Life Technologies) supplemented with 10% FCS (Invitrogen, Cergy, France).
For activation, monocytes were cultured in the presence of E. coli LPS (0111:B4, 1 μg/mL, Sigma-Aldrich, La Verpillière, France). Cell viability was assessed by trypan blue exclusion and by measuring lactate dehydrogenase release. In some experiments, this stimulus was given in combination with TNF-α (5 to 100 ng/mL, R&D Systems, Lille, France), IL-1β (5 to 100 ng/mL, R&D Systems), rIFN-γ (up to 100 U/mL, R&D Systems), rIL-10 (500 U/ml, R&D Systems) or up to 100 ng/mL of P5 or control peptide.
In order to activate monocytes through TREM-1, an anti-TREM-1 agonist monoclonal antibody (R&D Systems) was added as follows: flat-bottom plates were precoated with 10 μg/mL anti-TREM-1 per well. After thorough washing in phosphate buffered saline (PBS), the monocyte suspensions were added at a similar concentration as above. Some experiments were performed in the presence of protease inhibitors (PMSF and Protease Cocktail Inhibitor; Invitrogen). Cell-free supernatants were assayed for the production of TNF-α and IL-1β by ELISA according to the recommendations of the manufacturer (BD Biosciences, San Diego, USA). To address the effect of P5 on NF-κB activity in monocytes, an ELISA-based assay was performed (BD Mercury™ Transfactor Kit, BD Biosciences). Monocytes were cultured for 24 hours in the presence of E. coli LPS (O111:B4, 1 μg/mL), and/or an agonist anti-TREM-1 monoclonal antibody (10 μg/mL), and/or P5 (100 ng/mL). Whole-cell extracts were then prepared and levels of NF-κB p50 and p65 were determined according to the recommendations of the manufacturer. All experiments were performed in triplicate and data are expressed as means (SEM). Identification and Quantitation of sTREM-1 Release
Primary monocytes suspensions were cultured as described above. The cells were treated with E. coli LPS (0111:B4, 1 μg/mL) for 24 hours at 37° C. Cell-conditioned medium was submitted to Western-blotting using an anti-TREM-1 monoclonal antibody (R&D Systems) in order to confirm the presence of 27 kDa material recognized by anti-TREM-1. Soluble TREM-1 levels were measured by assessing the optical intensity of bands on immunodots by means of a reflectance scanner and the Quantity One Quantitation Software (Bio-Rad, Cergy, France) as reported elsewhere (18). […]

BALB/c mice [1] = assay: CLP polymicrobial sepsis model in mice (Example 3); assay type: in vivo, mouse; conditions: 24 hours after CLP; control peptide, dose not given in table (100 μg in source)
Protocol: Male Balb/C mice (20 to 23 g) were randomly grouped and treated with normal saline (n=14) or the control peptide (n=14, 100 μg) or with P5 (100 μg) in a single infection at HO (n=18), H+4 (n=18) or H+24 (n=18). The last group of mice (n=18) was treated with repeated injections of P5 (100 μg) at H+4, H+8 and H+24.
Mice (n=15 per group) were treated with a single injection of normal saline or 10 μg, 20 μg, 50 μg, 100 μg or 200 μg of P5 at HO after the CLP and monitored for survival.
Mice (5 per group) were killed under anaesthesia at 24 hours after CLP. Bacterial counts in peritoneal lavage fluid and blood were determined and results are expressed as CFU per mL of blood and CFU per mouse for the peritoneal lavage.
Male Balb/C mice (7 to 9 weeks, 20 to 23 g) were anaesthetized by i.p. administration of ketamine and xylazine in 0.2 mL sterile pyrogen-free saline. The caecum was exposed through a 1.0 cm abdominal midline incision and subjected to a ligation of the distal half followed by two punctures with a G21 needle. A small amount of stool was expelled from the punctures to ensure patency. The caecum was replaced into the peritoneal cavity and the abdominal incision closed in two layers. After surgery all mice were injected s.c. with 0.5 ml of physiologic saline solution for fluid resuscitation and s.c. every 12 h with 1.25 mg (i.e. 50 μg/g) of imipenem. The animals were randomly grouped and treated with normal saline (n=14), the control peptide (n=14, 100 μg) or P5 (100 μg) in a single injection at HO (n=18), H+4 (n=18) or H+24 (n=18). The last group of mice (n=18) was treated with repeated injections of P5 (100 μg) at H+4, H+8 and H+24. All treatments were diluted into 500 μl of normal saline and administered i.p. The Inventors next sought to determine the effect of various doses of P5. For this purpose, mice (n=15 per group) were treated with a single injection of normal saline or 10 μg, 20 μg, 50 μg 100 μg or 200 μg of P5 at HO after the CLP and monitored for survival. Five additional animals per group were killed under anaesthesia 24 hours after CLP for the determination of bacterial count and cytokines levels. Peritoneal lavage fluid was obtained using 2 mL RPMI 1640 (Life Technologies) and blood was collected by cardiac puncture. Concentrations of TNF-α and IL-1β in the serum were determined by ELISA (BD Biosciences). For the assessment of bacterial counts, blood and peritoneal lavage fluid were plated in serial log dilutions on tryptic soy supplemented with 5% sheep blood agar plates. After plating, tryptic soy agar plates were incubated at 37° C. aerobically for 24 hours, and anaerobically for 48 hours. Results are expressed as CFU per mL of blood and CFU per mouse for the peritoneal lavage.

BALB/c mice [2] = assay: LPS-induced endotoxaemia, survival of mice (Example 1); assay type: in vivo, mouse
Protocol: BALB/c mice (10 per group) were injected intraperitoneally with 200 μg LPS. The TREM-1 peptides P1, P2, P3, or P5 (200 μl of a 300 μM solution per mouse) were injected intraperitoneally 1 hour before LPS. Viability of mice was monitored twice a day for 7 days. Statistical analysis was performed by Logrank test. Data from control mice represent cumulative survival curves from two independent experiments performed under identical conditions.
BALB/c mice (10 per group) were injected intraperitoneally with 200 μg LPS. TREM-1 peptide P1, 200 μl of a 300 μM solution per mouse was injected intraperitoneally 1 hour before or 4 hours after LPS. Viability of mice was monitored twice a day for 7 days. Statistical analysis was performed with the Logrank test. Data from control mice represent cumulative survival curves from two independent experiments performed under identical conditions
BALB/c mice (10 per group) were injected intraperitoneally with 200 μg LPS. P1 peptide, 200 μl of a 150, 300 and 600 μM solution per mouse (dots) or P3, 200 μl of a 600 μM solution per mouse (filled squares) were injected intraperitoneally 4 hours after LPS. Viability of mice was monitored twice a day for 7 days. Statistical analysis was performed with the Logrank test
In the experiments of this example, the peptides were administered in a volume of 200 μl of the solution molarity indicated. To assess the ability of TREM1-peptides to protect mice from LPS-induced endotoxaemia, the Inventors administered peptides P1, P2, P3 and P5 (300 μM) 1 hour before a lethal dose of lipopolysaccharide (LPS) (FIG. 2). Lethality was monitored over time and compared with animals that had received control injections of vehicle alone. P5 injection confers maximal protection, with 90% of the animals still alive 7 days after LPS injection, as compared with 10% of control mice (p<0.001). 60% of the P1-treated mice and 50% of the P2 treated mice survived endotoxaemia as compared with 10% of control mice (p<0.01 and p<0.05 respectively).
In order to investigate whether TREM-1 peptide treatment could be delayed until after the administration of LPS, the Inventors injected the peptides at 4 hours after LPS injection. […] 80% of the mice injected with P1 4 hours after LPS survived endotoxaemia compared to 60% of mice treated 1 h before LPS and 10% of mice treated with vehicle alone (p<0.001 and p<0.01 respectively). Thus, P1 is effective even when injected after the outbreak of endotoxaemia. […] P1 administration conferred maximal protection (80%) when administered at 600 μM (p<0.01) and the level of protection dropped to 50% at 300 μM (p<0.05) and further down to 30% at 150 μM as compared to 20% of control mice, indicating a dose dependent effect of P1 (FIG. 4). The Inventors then investigated whether P1 protects against septic shock in the “CLP” model (Cecal Ligation and Puncture is a widely used experimental model of sepsis). Mice treated with two doses of P1 at 5 and 24 hours after CLP were protected from death as compared to control treated mice (p=0.0791) although the difference was not statistically significant. 40% of the mice injected with P1 at 5 days after CLP survived compared to 5% of mice treated with P3 peptide.

C57BL/6 mice = assay: cecal ligation and puncture (CLP), survival of mice (Example 1); assay type: in vivo, mouse; conditions: 200 μl of 600 μM i.p. 5 and 24 hours after CLP; 5 days after CLP; 15 per group
Protocol: CLP was induced in C57BL/6 mice (15 per group) as described in Materials and Methods. P1 peptide (empty dots) or P3 peptide (filled squares) (200 μl of a 600 μM solution per mouse) were injected intraperitoneally 5 and 24 hours after CLP induction. Viability of mice was monitored twice a day for 10 days. Statistical analysis was performed with the Logrank test.
In order to investigate whether TREM-1 peptide treatment could be delayed until after the administration of LPS, the Inventors injected the peptides at 4 hours after LPS injection. […] 80% of the mice injected with P1 4 hours after LPS survived endotoxaemia compared to 60% of mice treated 1 h before LPS and 10% of mice treated with vehicle alone (p<0.001 and p<0.01 respectively). Thus, P1 is effective even when injected after the outbreak of endotoxaemia. […] P1 administration conferred maximal protection (80%) when administered at 600 μM (p<0.01) and the level of protection dropped to 50% at 300 μM (p<0.05) and further down to 30% at 150 μM as compared to 20% of control mice, indicating a dose dependent effect of P1 (FIG. 4). The Inventors then investigated whether P1 protects against septic shock in the “CLP” model (Cecal Ligation and Puncture is a widely used experimental model of sepsis). […]

[3] = system: TREM-1/TREM-1 ligand interaction; assay: competition of soluble mouse TREM-1/IgG1 binding to TREM-1 ligand positive peritoneal exudate cells (flow cytometry); conditions: peptides 100 and 500 μM, pre-incubated 45 minutes on ice; 2 μg/ml mouseTREM-1/hIgG1
Protocol: Cytofluorimetric analysis of peritoneal exudate cells with 2 μg/ml of mouseTREM-1/hIgG1 in the presence of a 500 μM solution per mouse (thin line), 100 μM solution per mouse (dotted line) or absence (thick line) of the peptides is shown. The grey histogram represents immunostaining with human IgG1 as a control.
A possible mechanism of action could be the ability of TREM-1 derived peptide to interfere with TREM-1/TREM-1 ligand interaction. To address this question the Inventors performed competition experiments on TREM-1 ligand positive cells: PEC (Peritoneal Exudate Cells) from CLP treated mice.
Peritoneal exudate cells (PEC) from mice suffering from a caecal ligation and puncture (CLP)-induced peritonitis were subjected to flow cytometry analysis after incubation with a PE-conjugated anti-human IgG1 (Jackson Immunoresearch, Bar Harbor, USA). Competition with TREM-1 peptides was performed by pre-incubating cells with the indicated concentrations of peptides for 45 minutes on ice before adding mTREM-1-IgG1.

Row | Molecule | TNF-α and IL-1β production (release of inflammatory cytokines) in monocyte supernatant (human monocytes) | release of sTREM-1 from monocytes cultured with LPS (human monocytes) | inhibition of TREM-1 interaction with its ligand (mTREM-1/IgG1 binding to PEC) [3] | also measured
1 | TDSRCVIGLYHPPLQVY [P5sc, reference compound] | no action | no action | – | Serum IL-1β (BALB/c mice [1]): 841 ± 204 pg/mL; Serum TNF-α (BALB/c mice [1]): 105 ± 12 pg/mL; Serum sTREM-1 (BALB/c mice [1]): 52 ± 3 ng/mL
2 | TTTRSLPKPTAVVSSPG [P3] | – | – | ineffective | time within which all treated mice died after LPS injection (BALB/c mice [2]; 200 μl of 300 μM peptide i.p. 1 hour before LPS): ≤ 4 days; mice surviving after CLP (C57BL/6 mice): 5%
3 | VIYHPPNDPVVLFHPVRLVVTKG (listed as Mus musculus) [P2] | – | – | inhibit TREM-1 interaction with its ligand in a dose dependent manner | animals alive 7 days after LPS injection (BALB/c mice [2]; 200 μl of 300 μM peptide i.p. 1 hour before 200 μg LPS i.p., 10 mice per group (FIG. 2, 3)): 50%
4 | B1 | totally inhibited | totally inhibited | – | –
